The record followed here is BindingDB's records for doi:10.1021/jm000443d (University of California At San Diego, 2001).

This assay has as its target Protein kinase C alpha type (Homo sapiens, UniProt P17252). Description: Inhibition of Protein kinase C alpha.
Take `O=C(N[C@@H]1CCCCCC1OC(=O)c1ccc(C(=O)C2C(O)=CC=CC2C(=O)O)c(O)c1)c1ccc(O)cc1` (stereo not given in full): the IC50 stood at 0.27 nM.

`O=C(N[C@@H]1COCCCC1OC(=O)c1ccc(C(=O)C2C(O)=CC=CC2C(=O)O)c(O)c1)c1ccc(O)cc1` (stereo not given in full) registered an IC50 of 6.7 nM.

`O=C(N[C@@H]1CSCCCC1OC(=O)c1ccc(C(=O)C2C(O)=CC=CC2C(=O)O)c(O)c1)c1ccc(O)cc1` (stereo not given in full) yielded an IC50 of 3.3 nM.

The compound `O=C(N[C@@H]1CS(=O)(=O)CCCC1OC(=O)c1ccc(C(=O)C2C(O)=CC=CC2C(=O)O)c(O)c1)c1ccc(O)cc1` (stereo not given in full) displayed an IC50 of 9.6 nM.

`O=C(N[C@@H]1CNCCC[C@H]1OC(=O)c1cc(O)c(C(=O)c2c(O)cccc2C(=O)O)c(O)c1)c1ccc(O)cc1` [Acyclic Balanol Analog (-)-1] had an IC50 of 0.074 nM.
